Results as given in PMC8802618 (ACS infectious diseases, 2021).
≈ marks a conversion by molar mass, not a printed value. Like-named read-outs stand apart in the source and are kept apart here.

Key:
[1] = cited from earlier work
[2] = tested on: P. falciparum parasites harboring mutations in the Kelch protein, K13; conditions: cited from earlier work
[3] = cited from earlier work; remark: listed apart in the source
[4] = tested on: Chloroquine-Sensitive (NF54) strain of P. falciparum; conditions: parent compound; cited from earlier work
[5] = tested on: Chloroquine-Resistant (K1) strain of P. falciparum; conditions: parent compound; cited from earlier work
[6] = single oral dose as low as 20 mg/kg; cited from earlier work
[7] = tested on: Chloroquine-Sensitive (NF54) strain of P. falciparum; type: cell-based; conditions: 72 h [3H]-hypoxanthine incorporation; mean of two biological replicates
[8] = tested on: Chloroquine-Resistant (K1) strain of P. falciparum; type: cell-based; conditions: for IC50 K1: 72 h [3H]-hypoxanthine incorporation, mean of two biological replicates

CC(C)(N)CNC(=O)C[C@H]1CC[C@]2(CC1)OO[C@]1(O2)C2CC3CC(C2)CC1C3 [Arterolane]
in vivo half-life ([1]; in vivo): 2 to 4 h

c1cc([C@H]2CC[C@]3(CC2)OO[C@]2(O3)C3CC4CC(C3)CC2C4)ccc1OCCN1CCOCC1 [compound 2]
activity against K13 mutant parasites [2]: active
safety ([3]; up to a dose of 1600 mg): good safety properties
IC50 NF54 [4]: 1.9 ng/mL (≈ 4.05 nM)
IC50 K1 [5]: 1.6 ng/mL (≈ 3.41 nM)
cure rate [6]: 100%

[O-][N+]1(CCOc2ccc(C3CCC4(CC3)OOC3(O4)C4CC5CC(C4)CC3C5)cc2)CCOCC1 (stereo not shown) [compound 8]
relative area under the plasma concentration versus time curve (AUC) of metabolites ([3]; human, in vivo): comparatively lower AUC values
IC50 NF54 [7]: 2.3 ng/mL (≈ 4.74 nM)
IC50 K1 [8]: 1.4 ng/mL (≈ 2.88 nM)
in vitro activity against P. falciparum relative to parent 2 ([8]; K1 and NF54 strains, Table 1): comparable to 2

[O-][N+]1(CCOc2ccc(C3CCC4(CC3)OOC3(O4)C4CC5CC3CC(O)(C5)C4)cc2)CCOCC1 (stereo not shown) [compound 11]
IC50 NF54 [7]: >100/>100 ng/mL
IC50 K1 [8]: >100/>100 ng/mL

C[C@H]1[C@@H](O)O[C@@H]2O[C@@]3(C)CC[C@H]4[C@H](C)CC[C@@H]1[C@@]24OO3 [dihydroartemisinin]
in vivo half-life [1]: ~ 2 h
